Measurements reported in ChEMBL document CHEMBL1201862, “PubChem BioAssay data set” (2004).
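Compound exposure: 48 hours, 5 concentrations, 96-well plates. GI50 marks 50% less growth.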 The source made the active and inactive calls. No stated cut-off is given here; in the data, active = GI50 up to about 1.1 µM and inactive = higher.

Legend:
Experiment in all cases: DTP human tumour cell line panel, 48 h
[1] = test system: COLO 205
[2] = test system: SF-295
[3] = test system: HCT-15
[4] = test system: SK-MEL-2
[5] = test system: RXF 393
[6] = test system: HT-29
[7] = test system: TK-10
[8] = test system: U-251
[9] = test system: UACC-62
[10] = test system: OVCAR-4
[11] = test system: SNB-75
[12] = test system: SN12C
[13] = test system: LOX IMVI
[14] = test system: BT-549
[15] = test system: MDA-MB-231
[16] = test system: CCRF-CEM
[17] = test system: PC-3
[18] = test system: NCI-H460
[19] = test system: NCI-H522
[20] = test system: HL-60
[21] = test system: DU-145
[22] = test system: 786-0
[23] = test system: KM12
[24] = test system: A549
[25] = test system: T47D
[26] = test system: MDA-MB-435
[27] = test system: SK-OV-3
[28] = test system: A498
[29] = test system: SF-268
[30] = test system: NCI-H23
[31] = test system: M14
[32] = test system: OVCAR-8
[33] = test system: HOP-62
[34] = test system: SK-MEL-5
[35] = test system: NCI/ADR-RES
[36] = test system: SR
[37] = test system: OVCAR-5
[38] = test system: MCF7
[39] = test system: ACHN
[40] = test system: SF-539
[41] = test system: UO-31
[42] = test system: IGROV-1
[43] = test system: MOLT-4
[44] = test system: SK-MEL-28
[45] = test system: OVCAR-3
[46] = test system: NCI-H226
[47] = test system: EKVX
[48] = test system: UACC-257
[49] = test system: HCC 2998
[50] = test system: HCT-116
[51] = test system: SW-620
[52] = test system: RPMI-8226
[53] = test system: CAKI-1
[54] = test system: K562
[55] = test system: MDA-N
[56] = test system: SNB-19
[57] = test system: Malme-3M

O=c1c2ncn(C3CCCO3)c2n(-c2ccccc2)c(=S)n1-c1ccccc1 (stereo not drawn)
GI50 [1]: > 100 µM (inactive)
GI50 [2]: > 100 µM (inactive)
GI50 [3]: > 100 µM
GI50 [4]: > 100 µM (inactive)
GI50 [5]: > 100 µM (inactive)
GI50 [6]: > 100 µM (inactive)
GI50 [7]: > 100 µM (inactive)
GI50 [8]: > 100 µM (inactive)
GI50 [9]: > 100 µM (inactive)
GI50 [10]: > 100 µM (inactive)
GI50 [11]: 97.7 µM (inactive)
GI50 [12]: > 100 µM (inactive)
GI50 [13]: > 100 µM (inactive)
GI50 [14]: > 100 µM (inactive)
GI50 [15]: > 100 µM (inactive)
GI50 [16]: > 100 µM (inactive)
GI50 [17]: > 100 µM (inactive)
GI50 [18]: > 100 µM (inactive)
GI50 [19]: > 100 µM (inactive)
GI50 [20]: > 100 µM (inactive)
GI50 [21]: > 100 µM (inactive)
GI50 [22]: > 100 µM (inactive)
GI50 [23]: > 100 µM (inactive)
GI50 [24]: > 100 µM (inactive)
GI50 [25]: > 100 µM (inactive)
GI50 [26]: > 100 µM (inactive)
GI50 [27]: > 100 µM (inactive)
GI50 [28]: > 100 µM (inactive)
GI50 [29]: > 100 µM (inactive)
GI50 [30]: > 100 µM (inactive)
GI50 [31]: > 100 µM (inactive)
GI50 [32]: > 100 µM (inactive)
GI50 [33]: > 100 µM (inactive)
GI50 [34]: > 100 µM (inactive)
GI50 [35]: > 100 µM (inactive)
GI50 [36]: > 100 µM (inactive)
GI50 [37]: > 100 µM (inactive)
GI50 [38]: > 100 µM (inactive)
GI50 [39]: > 100 µM (inactive)
GI50 [40]: > 100 µM (inactive)
GI50 [41]: > 100 µM (inactive)
GI50 [42]: > 100 µM (inactive)
GI50 [43]: > 100 µM (inactive)
GI50 [44]: > 100 µM (inactive)
GI50 [45]: > 100 µM (inactive)
GI50 [46]: > 100 µM (inactive)
GI50 [47]: > 100 µM (inactive)
GI50 [48]: > 100 µM (inactive)
GI50 [49]: > 100 µM (inactive)
GI50 [50]: > 100 µM (inactive)
GI50 [51]: > 100 µM (inactive)
GI50 [52]: > 100 µM (inactive)
GI50 [53]: > 100 µM (inactive)
GI50 [54]: > 100 µM (inactive)

C=CCn1c(-c2ccccc2)cs/c1=N\C(P(=O)(O)O)P(=O)(O)O
GI50 [1]: > 100 µM (inactive)
GI50 [2]: > 100 µM (inactive)
GI50 [3]: > 100 µM
GI50 [5]: > 100 µM (inactive)
GI50 [7]: > 100 µM (inactive)
GI50 [55]: > 100 µM (inactive)
GI50 [9]: > 100 µM (inactive)
GI50 [13]: > 100 µM (inactive)
GI50 [14]: > 100 µM (inactive)
GI50 [15]: > 100 µM (inactive)
GI50 [17]: > 100 µM (inactive)
GI50 [18]: > 100 µM (inactive)
GI50 [19]: > 100 µM (inactive)
GI50 [21]: > 100 µM (inactive)
GI50 [22]: > 100 µM (inactive)
GI50 [23]: > 100 µM (inactive)
GI50 [24]: > 100 µM (inactive)
GI50 [27]: > 100 µM (inactive)
GI50 [56]: > 100 µM (inactive)
GI50 [29]: > 100 µM (inactive)
GI50 [30]: > 100 µM (inactive)
GI50 [31]: > 100 µM (inactive)
GI50 [33]: > 100 µM (inactive)
GI50 [34]: > 100 µM (inactive)
GI50 [35]: > 100 µM (inactive)
GI50 [37]: > 100 µM (inactive)
GI50 [57]: > 100 µM (inactive)
GI50 [38]: > 100 µM (inactive)
GI50 [39]: > 100 µM (inactive)
GI50 [40]: > 100 µM (inactive)
GI50 [41]: > 100 µM (inactive)
GI50 [42]: > 100 µM (inactive)
GI50 [45]: > 100 µM (inactive)
GI50 [46]: > 100 µM (inactive)
GI50 [47]: > 100 µM (inactive)
GI50 [48]: > 100 µM (inactive)
GI50 [49]: > 100 µM (inactive)
GI50 [50]: > 100 µM (inactive)
GI50 [53]: > 100 µM (inactive)
